According to PMC3959874 (European journal of dermatology : EJD, 2013):
Read-outs that look alike come from different tables or passages of the source.

Columns and labels:
CYP1A2 = CYP1A2 (Homo sapiens, UniProt P05177); experiment: Cytochrome P450 enzyme assay; type: in vitro ADME; settings: human
CYP2C19 = CYP2C19 (Homo sapiens, UniProt P33261); experiment: Cytochrome P450 enzyme assay; type: in vitro ADME; settings: human
CYP2C9 = CYP2C9 (Homo sapiens, UniProt P11712); experiment: Cytochrome P450 enzyme assay; type: in vitro ADME; settings: human
CYP2D6 = CYP2D6 (Homo sapiens, UniProt P10635); experiment: Cytochrome P450 enzyme assay; type: in vitro ADME; settings: human
CYP3A4 = CYP3A4 (Homo sapiens, UniProt P08684); experiment: Cytochrome P450 enzyme assay; type: in vitro ADME; settings: human
Adenosine A1 = Adenosine A1 (Homo sapiens, UniProt P30542); experiment: Radioligand binding assay; settings: read-out: Percent inhibition of specific radioligand binding
Adrenergic β1 = Adrenergic β1 (Homo sapiens, UniProt P08588); experiment: Radioligand binding assay; settings: read-out: Percent inhibition of specific radioligand binding
[1] = target: Androgen (Testosterone) AR (Rattus norvegicus, UniProt P15207); experiment: Radioligand binding assay; settings: read-out: Percent inhibition of specific radioligand binding
Bradykinin B1 = Bradykinin B1 (Homo sapiens, UniProt P46663); experiment: Radioligand binding assay; settings: read-out: Percent inhibition of specific radioligand binding
Bradykinin B2 = Bradykinin B2 (Homo sapiens, UniProt P30411); experiment: Radioligand binding assay; settings: read-out: Percent inhibition of specific radioligand binding
[2] = system: Calcium Channel L-Type, Benzothiazepine; experiment: Radioligand binding assay; design: species or system rat; settings: 10 μM; 4 °C, 180 min
[3] = system: Calcium Channel L-Type, Dihydropyridine; experiment: Radioligand binding assay; design: species or system rat; settings: 10 μM; 25 °C, 90 min
Calcium Channel N-Type = Calcium Channel N-Type (Rattus norvegicus, UniProt Q02294); experiment: Radioligand binding assay; settings: read-out: Percent inhibition of specific radioligand binding
Cannabinoid CB1 = Cannabinoid CB1 (Homo sapiens, UniProt P21554); experiment: Radioligand binding assay; settings: read-out: Percent inhibition of specific radioligand binding
Dopamine D1 = Dopamine D1 (Homo sapiens, UniProt P21728); experiment: Radioligand binding assay; settings: read-out: Percent inhibition of specific radioligand binding
Dopamine D4.2 = Dopamine D4.2 (Homo sapiens, UniProt P21917, DEL265-296); experiment: Radioligand binding assay; settings: read-out: Percent inhibition of specific radioligand binding
Endothelin ETB = Endothelin ETB (Homo sapiens, UniProt P24530); experiment: Radioligand binding assay; settings: read-out: Percent inhibition of specific radioligand binding
[4] = target: Epidermal Growth Factor (EG F) (Homo sapiens, UniProt P00533); experiment: Radioligand binding assay; settings: read-out: Percent inhibition of specific radioligand binding
Estrogen ERa = Estrogen ERa (Homo sapiens, UniProt P03372); experiment: Radioligand binding assay; settings: read-out: Percent inhibition of specific radioligand binding
[5] = system: GABAA, Flunitrazepam, Cent ral; experiment: Radioligand binding assay; design: species or system rat; settings: 10 μM; 25 °C, 120 min
GABAA, Muscimol, Central = experiment: Radioligand binding assay; design: species or system rat; settings: 10 μM; 4 °C, 10 min
Glucocorticoid = Glucocorticoid (Homo sapiens, UniProt P04150); experiment: Radioligand binding assay; settings: read-out: Percent inhibition of specific radioligand binding
Glutamate, Kainate = experiment: Radioligand binding assay; design: species or system rat; settings: 10 μM; 4 °C, 60 min
Glutamate, NMDA, Agonism = experiment: Radioligand binding assay; design: species or system rat; settings: 10 μM; 4 °C, 20 min
Glutamate, NMDA, Glycine = Glutamate, NMDA, Glycine (Rattus norvegicus, UniProt P35439); experiment: Radioligand binding assay; settings: read-out: Percent inhibition of specific radioligand binding
[6] = system: Glutamate, NMDA, Phencyclidine; experiment: Radioligand binding assay; design: species or system rat; settings: 10 μM; 25 °C, 45 min
Histamine H3 = Histamine H3 (Homo sapiens, UniProt Q9Y5N1); experiment: Radioligand binding assay; settings: read-out: Percent inhibition of specific radioligand binding
Imidazoline I2, Central = experiment: Radioligand binding assay; design: species or system rat; settings: 10 μM; 25 °C, 30 min
Interleukin IL-1 = Interleukin IL-1 (Mus musculus, UniProt P13504); experiment: Radioligand binding assay; settings: read-out: Percent inhibition of specific radioligand binding
[7] = target: Leukotriene, Cysteinyl CysLT 1 (Homo sapiens, UniProt Q9Y271); experiment: Radioligand binding assay; settings: read-out: Percent inhibition of specific radioligand binding
Muscarinic M2 = Muscarinic M2 (Homo sapiens, UniProt P08172); experiment: Radioligand binding assay; settings: read-out: Percent inhibition of specific radioligand binding
Neuropeptide Y Y2 = Neuropeptide Y Y2 (Homo sapiens, UniProt P49146); experiment: Radioligand binding assay; settings: read-out: Percent inhibition of specific radioligand binding
Nicotinic Acetylcholine = experiment: Radioligand binding assay; design: species or system human; settings: 10 μM; 25 °C, 60 min
[8] = target: Nicotinic Acetylcholine a1, Bungarotoxin (Homo sapiens, UniProt P02708+P07510+Q07001); experiment: Radioligand binding assay; settings: read-out: Percent inhibition of specific radioligand binding
Opiate 51 (OP1, DOP) = Opiate 51 (OP1, DOP) (Homo sapiens, UniProt P41143); experiment: Radioligand binding assay; settings: read-out: Percent inhibition of specific radioligand binding
Phorbol Ester = experiment: Radioligand binding assay; design: species or system mouse; settings: 10 μM; 25 °C, 60 min
[9] = target: Platelet Activating Factor (PA F) (Homo sapiens, UniProt P25105); experiment: Radioligand binding assay; settings: read-out: Percent inhibition of specific radioligand binding
Potassium Channel [KATP] = experiment: Radioligand binding assay; design: species or system human; settings: 10 μM; 25 °C, 120 min
hERG potassium channel = hERG potassium channel (Homo sapiens, UniProt Q12809); experiment: Radioligand binding assay; settings: human
Prostanoid EP4 = Prostanoid EP4 (Homo sapiens, UniProt P35408); experiment: Radioligand binding assay; settings: read-out: Percent inhibition of specific radioligand binding
Purinergic P2x = experiment: Radioligand binding assay; design: species or system rabbit; settings: 10 μM; 25 °C, 30 min
Purinergic P2, = experiment: Radioligand binding assay; design: species or system rat; settings: 10 μM; 25 °C, 60 min
[10] = target: Serotonin (5-Hydroxytryptam ine) 5-HT1A (Homo sapiens, UniProt P08908); experiment: Radioligand binding assay; settings: read-out: Percent inhibition of specific radioligand binding
[11] = target: Serotonin (5-Hydroxytryptam ine) 5-HT2B (Homo sapiens, UniProt P41595); experiment: Radioligand binding assay; settings: read-out: Percent inhibition of specific radioligand binding
Thyroid Hormone = experiment: Radioligand binding assay; design: species or system rat; settings: 10 μM; 4 °C, 18 hrs
Transporter, GABA = Transporter, GABA (Rattus norvegicus, UniProt P23978); experiment: Radioligand binding assay; settings: read-out: Percent inhibition of specific radioligand binding
[12] = target: Transporter, Norepinephrine (NET) (Homo sapiens, UniProt P23975); experiment: Radioligand binding assay; settings: read-out: Percent inhibition of specific radioligand binding
[13] = type: in vivo, mice; settings: for Body weight change after a single intravenous injection of the MTD: 150 mg/kg TMX-202 or 15 mg/kg IMQ i.v. (figure 4)
human PBMC = settings: up to 1 μM; ref [24]; cited from earlier work
[14] = Serum drug concentration after topical skin application; settings: C57BL/6, mouse, serum

hERG potassium channel, sequence (Q12809 whole entry): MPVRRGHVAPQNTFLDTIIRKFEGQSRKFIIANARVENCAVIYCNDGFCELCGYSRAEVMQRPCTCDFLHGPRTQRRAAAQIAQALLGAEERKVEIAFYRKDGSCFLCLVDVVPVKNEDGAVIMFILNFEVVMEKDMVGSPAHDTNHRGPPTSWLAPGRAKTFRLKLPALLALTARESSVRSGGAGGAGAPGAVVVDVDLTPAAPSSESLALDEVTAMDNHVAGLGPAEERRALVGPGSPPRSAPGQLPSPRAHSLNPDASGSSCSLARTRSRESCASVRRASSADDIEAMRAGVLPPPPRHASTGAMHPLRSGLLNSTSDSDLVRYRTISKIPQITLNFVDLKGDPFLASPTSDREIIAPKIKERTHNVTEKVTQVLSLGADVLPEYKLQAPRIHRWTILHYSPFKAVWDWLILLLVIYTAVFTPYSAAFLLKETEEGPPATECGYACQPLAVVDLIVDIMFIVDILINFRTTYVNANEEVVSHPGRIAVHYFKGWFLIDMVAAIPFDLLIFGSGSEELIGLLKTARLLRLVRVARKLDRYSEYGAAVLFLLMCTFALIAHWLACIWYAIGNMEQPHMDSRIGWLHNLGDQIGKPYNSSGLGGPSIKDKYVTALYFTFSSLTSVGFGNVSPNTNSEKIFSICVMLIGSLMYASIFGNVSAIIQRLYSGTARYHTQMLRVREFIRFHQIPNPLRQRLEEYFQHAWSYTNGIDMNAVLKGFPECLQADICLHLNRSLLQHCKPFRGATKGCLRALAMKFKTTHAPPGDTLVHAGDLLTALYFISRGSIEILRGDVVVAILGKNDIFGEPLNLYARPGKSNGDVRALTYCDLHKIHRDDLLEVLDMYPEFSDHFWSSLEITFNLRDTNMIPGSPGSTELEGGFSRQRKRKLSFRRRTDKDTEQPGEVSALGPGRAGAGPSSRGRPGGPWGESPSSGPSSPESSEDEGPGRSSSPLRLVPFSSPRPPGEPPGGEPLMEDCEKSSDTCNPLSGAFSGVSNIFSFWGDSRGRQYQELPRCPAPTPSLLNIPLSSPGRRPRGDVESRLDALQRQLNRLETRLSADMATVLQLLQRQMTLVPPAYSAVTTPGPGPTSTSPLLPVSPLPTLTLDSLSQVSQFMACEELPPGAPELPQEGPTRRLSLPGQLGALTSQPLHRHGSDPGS
Serotonin (5-Hydroxytryptam ine) 5-HT2B, sequence (P41595 whole entry): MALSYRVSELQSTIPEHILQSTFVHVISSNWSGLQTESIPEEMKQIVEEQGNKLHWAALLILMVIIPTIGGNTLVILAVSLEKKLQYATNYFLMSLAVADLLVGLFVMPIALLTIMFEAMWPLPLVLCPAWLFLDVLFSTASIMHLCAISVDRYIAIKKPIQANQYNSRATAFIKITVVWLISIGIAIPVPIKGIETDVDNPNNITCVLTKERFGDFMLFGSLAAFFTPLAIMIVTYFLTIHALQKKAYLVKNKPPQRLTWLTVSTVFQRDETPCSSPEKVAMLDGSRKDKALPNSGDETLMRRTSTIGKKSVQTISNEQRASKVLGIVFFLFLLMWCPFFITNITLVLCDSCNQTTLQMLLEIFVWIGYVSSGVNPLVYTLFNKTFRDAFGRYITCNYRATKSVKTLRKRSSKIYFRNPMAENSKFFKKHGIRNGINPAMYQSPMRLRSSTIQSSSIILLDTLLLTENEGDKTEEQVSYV
CYP1A2, sequence (P05177 whole entry): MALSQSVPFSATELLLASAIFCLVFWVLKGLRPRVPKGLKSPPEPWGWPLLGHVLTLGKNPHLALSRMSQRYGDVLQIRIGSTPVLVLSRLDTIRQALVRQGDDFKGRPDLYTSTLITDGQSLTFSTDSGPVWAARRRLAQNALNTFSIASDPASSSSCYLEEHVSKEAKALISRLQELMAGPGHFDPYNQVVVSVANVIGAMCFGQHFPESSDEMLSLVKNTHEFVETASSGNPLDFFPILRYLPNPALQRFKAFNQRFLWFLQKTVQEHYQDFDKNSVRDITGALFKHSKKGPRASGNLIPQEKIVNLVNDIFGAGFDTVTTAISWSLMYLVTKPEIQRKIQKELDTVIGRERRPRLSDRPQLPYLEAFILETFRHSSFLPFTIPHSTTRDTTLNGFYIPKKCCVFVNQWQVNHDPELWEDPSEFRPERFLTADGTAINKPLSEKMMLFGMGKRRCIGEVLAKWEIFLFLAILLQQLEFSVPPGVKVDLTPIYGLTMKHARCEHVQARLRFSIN
Nicotinic Acetylcholine a1, Bungarotoxin, sequence (P02708 21-457): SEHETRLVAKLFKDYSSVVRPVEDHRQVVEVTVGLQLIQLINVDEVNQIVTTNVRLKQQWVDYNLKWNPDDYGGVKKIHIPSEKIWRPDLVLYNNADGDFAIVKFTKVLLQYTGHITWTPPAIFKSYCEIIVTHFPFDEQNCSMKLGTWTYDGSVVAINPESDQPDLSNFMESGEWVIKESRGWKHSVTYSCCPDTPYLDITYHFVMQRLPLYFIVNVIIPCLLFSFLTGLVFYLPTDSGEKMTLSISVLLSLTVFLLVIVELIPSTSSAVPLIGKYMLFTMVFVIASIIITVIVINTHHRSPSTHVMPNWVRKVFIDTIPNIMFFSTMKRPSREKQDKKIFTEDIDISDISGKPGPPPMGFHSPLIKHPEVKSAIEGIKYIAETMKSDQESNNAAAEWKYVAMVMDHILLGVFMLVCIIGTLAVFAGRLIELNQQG
Nicotinic Acetylcholine a1, Bungarotoxin, sequence (P07510 23-517): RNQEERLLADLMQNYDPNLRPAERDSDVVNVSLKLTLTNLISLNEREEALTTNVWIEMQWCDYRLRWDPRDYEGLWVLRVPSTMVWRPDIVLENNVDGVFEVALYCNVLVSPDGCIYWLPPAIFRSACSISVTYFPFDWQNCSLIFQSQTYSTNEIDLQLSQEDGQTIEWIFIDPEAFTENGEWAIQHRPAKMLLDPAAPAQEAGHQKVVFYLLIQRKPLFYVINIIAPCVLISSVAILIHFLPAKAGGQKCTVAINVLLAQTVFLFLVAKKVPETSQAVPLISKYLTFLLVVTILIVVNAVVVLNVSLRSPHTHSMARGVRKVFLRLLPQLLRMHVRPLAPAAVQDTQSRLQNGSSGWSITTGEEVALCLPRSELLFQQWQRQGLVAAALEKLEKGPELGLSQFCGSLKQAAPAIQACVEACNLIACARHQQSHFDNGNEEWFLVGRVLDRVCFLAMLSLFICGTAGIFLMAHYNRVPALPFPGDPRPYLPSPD
Nicotinic Acetylcholine a1, Bungarotoxin, sequence (P11230 24-501, further chain): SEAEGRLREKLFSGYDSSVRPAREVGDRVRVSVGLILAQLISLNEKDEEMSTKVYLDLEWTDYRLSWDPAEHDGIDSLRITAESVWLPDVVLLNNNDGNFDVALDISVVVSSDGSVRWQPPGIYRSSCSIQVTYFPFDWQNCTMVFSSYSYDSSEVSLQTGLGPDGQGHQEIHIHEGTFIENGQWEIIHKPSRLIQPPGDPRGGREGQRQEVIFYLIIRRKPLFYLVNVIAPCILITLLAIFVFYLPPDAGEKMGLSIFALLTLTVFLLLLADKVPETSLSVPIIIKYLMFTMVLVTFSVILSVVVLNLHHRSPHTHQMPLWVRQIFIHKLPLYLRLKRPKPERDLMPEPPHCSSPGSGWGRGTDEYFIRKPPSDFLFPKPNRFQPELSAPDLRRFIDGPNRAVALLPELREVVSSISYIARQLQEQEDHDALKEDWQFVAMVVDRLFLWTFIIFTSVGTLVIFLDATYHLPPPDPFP
Nicotinic Acetylcholine a1, Bungarotoxin, sequence (Q07001 22-517): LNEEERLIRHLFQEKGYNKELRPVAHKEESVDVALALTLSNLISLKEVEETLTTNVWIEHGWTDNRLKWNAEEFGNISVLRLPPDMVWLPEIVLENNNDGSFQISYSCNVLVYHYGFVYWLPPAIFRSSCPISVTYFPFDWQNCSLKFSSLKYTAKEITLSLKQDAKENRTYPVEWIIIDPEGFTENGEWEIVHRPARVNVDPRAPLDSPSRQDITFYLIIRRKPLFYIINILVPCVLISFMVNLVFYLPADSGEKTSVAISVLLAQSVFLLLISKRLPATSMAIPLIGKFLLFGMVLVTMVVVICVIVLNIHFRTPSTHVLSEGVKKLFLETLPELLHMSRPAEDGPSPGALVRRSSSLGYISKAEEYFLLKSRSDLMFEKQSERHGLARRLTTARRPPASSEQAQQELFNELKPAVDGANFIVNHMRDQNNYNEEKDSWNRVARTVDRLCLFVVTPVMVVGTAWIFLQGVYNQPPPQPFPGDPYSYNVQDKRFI
Muscarinic M2, sequence (P08172 whole entry): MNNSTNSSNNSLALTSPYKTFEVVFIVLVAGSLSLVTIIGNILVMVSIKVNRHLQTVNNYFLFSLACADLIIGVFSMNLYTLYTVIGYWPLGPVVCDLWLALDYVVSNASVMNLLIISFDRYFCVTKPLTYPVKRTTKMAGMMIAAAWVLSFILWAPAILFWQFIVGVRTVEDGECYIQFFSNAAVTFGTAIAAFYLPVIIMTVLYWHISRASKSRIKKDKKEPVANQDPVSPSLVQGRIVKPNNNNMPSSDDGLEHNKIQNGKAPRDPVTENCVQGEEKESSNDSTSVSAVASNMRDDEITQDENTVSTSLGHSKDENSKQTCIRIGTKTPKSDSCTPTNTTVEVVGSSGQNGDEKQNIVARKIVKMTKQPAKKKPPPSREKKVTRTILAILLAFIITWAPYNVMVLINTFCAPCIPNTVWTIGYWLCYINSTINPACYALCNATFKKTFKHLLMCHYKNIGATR
Platelet Activating Factor (PA F), sequence (P25105 whole entry): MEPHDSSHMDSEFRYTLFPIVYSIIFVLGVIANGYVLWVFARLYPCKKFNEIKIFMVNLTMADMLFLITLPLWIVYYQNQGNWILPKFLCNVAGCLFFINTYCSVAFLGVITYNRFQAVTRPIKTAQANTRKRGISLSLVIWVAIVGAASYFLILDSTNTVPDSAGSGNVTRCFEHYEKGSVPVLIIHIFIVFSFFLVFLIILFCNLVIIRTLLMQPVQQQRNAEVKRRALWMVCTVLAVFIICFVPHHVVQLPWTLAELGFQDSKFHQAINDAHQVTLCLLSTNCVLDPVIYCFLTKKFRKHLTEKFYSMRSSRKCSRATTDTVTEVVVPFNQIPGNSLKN

Structure (SMILES): CC(C)Cn1cnc2c(N)nc3ccccc3c21 [IMQ, imiquimod, reference compound]
- inhibition at 30 min, 10 µM (CYP1A2): 66%
- inhibition at 45 min, 10 µM (CYP2C19): 10%
- inhibition at 45 min, 10 µM (CYP2C9): 3%
- inhibition at 45 min, 10 µM (CYP2D6): 29%
- inhibition at 30 min, 10 µM (CYP3A4): 1%
- inhibition at 10 µM (Adenosine A1): 50%
- inhibition at 10 µM (Adrenergic β1): 19%
- inhibition at 10 µM [1]: 7%
- inhibition at 10 µM (Bradykinin B1): 4%
- inhibition at 10 µM (Bradykinin B2): -1%
- Percent inhibition of specific radioligand binding [2]: 4%
- Percent inhibition of specific radioligand binding [3]: −14%
- inhibition at 10 µM (Calcium Channel N-Type): 2%
- inhibition at 10 µM (Cannabinoid CB1): -4%
- inhibition at 10 µM (Dopamine D1): 66%
- inhibition at 10 µM (Dopamine D4.2): 2%
- inhibition at 10 µM (Endothelin ETB): 0%
- inhibition at 10 µM [4]: -1%
- inhibition at 10 µM (Estrogen ERa): 0%
- Percent inhibition of specific radioligand binding [5]: 37%
- Percent inhibition of specific radioligand binding (GABAA, Muscimol, Central): 19%
- inhibition at 10 µM (Glucocorticoid): -2%
- Percent inhibition of specific radioligand binding (Glutamate, Kainate): −8%
- Percent inhibition of specific radioligand binding (Glutamate, NMDA, Agonism): 2%
- inhibition at 10 µM (Glutamate, NMDA, Glycine): -6%
- Percent inhibition of specific radioligand binding [6]: 4%
- inhibition at 10 µM (Histamine H3): 4%
- Percent inhibition of specific radioligand binding (Imidazoline I2, Central): 57%
- inhibition at 10 µM (Interleukin IL-1): 5%
- inhibition at 10 µM [7]: 10%
- inhibition at 10 µM (Muscarinic M2): 3%
- inhibition at 10 µM (Neuropeptide Y Y2): 6%
- Percent inhibition of specific radioligand binding (Nicotinic Acetylcholine): 3%
- inhibition at 10 µM [8]: 7%
- inhibition at 10 µM (Opiate 51 (OP1, DOP)): 5%
- Percent inhibition of specific radioligand binding (Phorbol Ester): 21%
- inhibition at 10 µM [9]: 2%
- Percent inhibition of specific radioligand binding (Potassium Channel [KATP]): −5%
- inhibition at 60 min, 10 µM (hERG potassium channel): 45%
- inhibition at 10 µM (Prostanoid EP4): 6%
- Percent inhibition of specific radioligand binding (Purinergic P2x): −7%
- Percent inhibition of specific radioligand binding (Purinergic P2,): 10%
- inhibition at 10 µM [10]: 19%
- inhibition at 10 µM [11]: 45%
- Percent inhibition of specific radioligand binding (Thyroid Hormone): −5%
- inhibition at 10 µM (Transporter, GABA): 2%
- inhibition at 10 µM [12]: 30%
- MTD at 8 days ([13]; C57BL/6, mouse, in vivo, iv): 15 mg/kg
- MTD (molar) ([13]; C57BL/6 mice, intravenous administration): approximately 62.5 μmoles/kg
- Body weight change after a single intravenous injection of the MTD ([13]; Tlr7−/− or Myd88−/− mice): did not result in body weight changes
- Body weight change after a single intravenous injection of the MTD ([13]; WT mice): did not result in body weight changes
- IFN-γ secretion in human PBMC (human PBMC): does not stimulate IFN-γ secretion
- concentration at 1 h [14]: 0.139 ± 0.0612 ng/mL
